This note sets out measurements from US9061069B2, “Use of constrained peptide mimic oligomers as vectorization agents” (CENTRE NATIONAL DE LA RECHERCHE SCIENTIFIQUE, priority 2009, dated 2015).

The test system of data set [1] is cells of the line MDA-MB-231. The experiment in a line: cytotoxicity, cellular viability test MTT. The format is cell-based, human. The note with it: incubation of 5 days, 10^-5M. From the text: The cytotoxicity of this novel class of molecules has also been determined in cells of the line MDA-MB-231 by using a cellular viability diagnostic test, MTT.
Data set [2] deals with cancerous cells (MDA-MB-231, MCF7, LNCaP, HCT116, SaOs2). The experiment in a line: cell growth / proliferation of tumoral lines, incubation for 5 days. To be noted: inhibitor alone. The format is cell-based. On the procedure:
FIG. 2 describes the cell growth (in percentage of number of cells with respect to a pepstatin control) of cancerous cells (mammary […] and MCF7, prostatics LNCaP, colic HCT116, osteoblastics SaOs2) as a function of their incubation for 5 days with 1 oligomer of AMPA (4497), pepstatin alone (Peps), [Val^1]-Pepstatin bonded to arginine (4567) and two conjugate inhibitors of cathepsin D-oligomer of AMPA bonded to an arginine residue (4564 and 4463). The negative percentages correspond to a reduction in the number of cells with respect to the initial cellular seeding.
FIG. 3 describes the cell growth (in percentage of number of cells with respect to a pepstatin control) of cancerous cells (MDA-MB-231, MCF7, LNCaP, HCT116, SaOs2) as a function of their incubation for 5 days with 1 oligomer of AMPA (4497), [Val^1]-Pepstatin bonded to conjugated arginine 5 (4567) and 4 [Val^1]-Pepstatin-oligomer of AMPA bonded to a lysine or arginine residue (4461, 4562, 4463, 4564). The negative percentages correspond to a reduction in the number of cells with respect to the initial cellular seeding.
The application of these vectors within the context of a tumoral pathology is now explored. […]

Where a SMILES comes first, the peptide text is derived from it. [ ]: non-standard residue; d: D form. The star is where a group is joined. Sta = CC(C)C[C@H](N)[C@@H](O)CC(=O)O; Isovaleryl = CC(C)CC(=O)*

In the case of `NC(=O)CN1C(=O)[C@H](NC(=O)CN2C(=O)[C@H](NC(=O)COCCOCCNC(=S)Nc3ccc4c(c3)C(=O)OC43c4ccc(O)cc4Oc4cc(O)ccc43)CSc3ccccc32)CSc2ccccc21` [JMV4131], the “effect on cellular viability (MTT)” value in data set [1] is recorded as “significant effect on cellular viability”.

`CC(C)CC(=O)N[C@H](C(=O)N[C@H](C(=O)N[C@@H](CC(C)C)[C@@H](O)CC(=O)N[C@@H](C)C(=O)N[C@@H](CC(C)C)[C@@H](O)CC(=O)O)C(C)C)C(C)C` [pepstatin A] (Isovaleryl-VV[Sta]A[Sta]-OH): the “effect on the proliferation of tumoral cells” value in data set [2] was “inactive”.
